The results in this text go back to publication PMC11540844, “Enhancing transcription–replication conflict targets ecDNA-positive cancers” (Nature, 2024).

The test system of assay [1] is ecDNA-containing tumour cells. The assay is described as follows: TUNEL and PI-Annexin V staining (apoptosis). The format is cell-based, human. To be noted: 1 µM CHIR-124, ecDNA-containing vs HSR cells. How it is done:
TUNEL assay (Invitrogen, catalogue no. C10617) was performed to detect DNA fragmentation during apoptosis. COLO320DM, COLO320HSR and SNU16 cells were treated with 1 µM CHIR-124 for indicated times. All cells including floating cells were collected and spun down onto slides using a cytospin (Thermo Scientific Cytospin 4 Centrifuge). Slides were fixed with 4% PFA and permeabilized with 0.25% Triton X-100, followed by labelling of free double strand end with EdUTP by reaction catalysed by TdT enzyme in a humidified chamber at 37 °C for 60 min. Incorporated EdUTP was detected through Click-iT Plus TUNEL reaction according to the manufacturer’s manual at 37 °C for 30 min. Slides were counterstained with DAPI and mounted with ProLong Diamond Antifade.
Cell apoptosis was detected through flow cytometry using a FITC Annexin V Apoptosis Detection Kit (BD Biosciences, catalogue no. 556547). Cells were treated with 1 µM of CHIR-124 for the indicated time, and all the cells including floating cells were collected. After washing with PBS twice and cell number counting, cells were resuspended in 1× binding buffer provided by the kit at a concentration of 1 × 10^6 cells per millilitre. […] After incubation at room temperature for 15 min, all the samples were analysed with BD LSR II flow cytometry (BD Biosciences) within 1 h. Flow cytometry data were analysed through Beckman Coulter Kaluza software (v.2.1).

In the next assay the test system is COLO320DM cells. Description: Cell viability / CTG proliferation (CellTiter-Glo). Format: cell-based, human. The procedure: (§1) Cell viability assay was performed using CellTiter-Glo (Promega, catalgoue no. G8461) as previously described. Briefly, cells were seeded into a 384-well plate one day before adding inhibitors. Equal volumes of vehicles or drugs diluted at indicated concentration were added into each well the next day, and the cells were incubated for three days. On the third day, after equilibrating plate and CellTiter-Glo reagent at room temperature for 30 min, reagent was added into each well and incubated for 15 min at room temperature. Luminescence was measured using a Synergy 2 microplate reader. Four biological replicates were performed for each condition. Data analysis was performed with GraphPad Prism (v.9.1.0).
(ATP-based viability assays read luminescence as a measure of living cells.)

In a further assay the test system is COLO320HSR cells. Description: Cell viability / CTG proliferation (CellTiter-Glo). The format is cell-based, human. The following applies: for IC50: Extended Data Fig. 8. The procedure:
as §1

Assay [2] concerns γH2AX in COLO320DM and COLO320HSR cells. The assay is described as follows: γH2AX IF combined with EdU labelling. The format is cell-based, human. The following applies: COLO320DM vs COLO320HSR, especially EdU+ cells. The procedure:
Coverslips were coated with 100 µg ml^−^1 poly-L-lysine overnight or 10 µg ml^−^1 laminin for 1 h at 37 °C before seeding cells. Asynchronized cells were seeded onto slides and subject to different treatment. Where indicated, EdU was added to each well at 10 µg ml^−^1 30 min before collecting samples. IF and dual-IF DNA FISH staining were performed as described before. Briefly, slides were fixed with ice-cold 4% paraformaldehyde (PFA) for 15 min, followed by permeabilization with 0.5% Triton X-100 in PBS for 15 min at room temperature. Samples were blocked with 3% BSA in PBS for 1 h at room temperature before incubation with primary antibody diluted in blocking buffer at 4 °C overnight. Dilution ratio for first antibodies was as follows: γH2Ax, 1:500; pRPA2-S33, 1:1,000; pCHK1S345, 1:250; 53BP1, 1:500; cyclin A, 1:100; pRNAPII S2/S4, 1:1,000. […]
Image analysis and quantification were performed using the open-source software CellProfiler (v.4.2.1). For foci number analysis, DAPI staining, IF staining and DNA FISH channel were analysed through automatic thresholding and segmentation to cell nuclei, pRPA2S33/γH2AX foci and DNA FISH foci respectively. […] For fluorescence intensity measurement, nuclei were called based on DAPI channel through automatic thresholding and segmentation; mean fluorescence intensity was retrieved by measuring mean fluorescence intensity within each nucleus.

The subject of the next assay is GBM39HSR cells. The assay is described as follows: Cell viability (CellTiter-Glo). Format: cell-based, human. To be noted: Extended Data Fig. 8. How it is done: as §1
The next assay concerns GBM39ec cells. Description: Cell viability (CellTiter-Glo). Format: cell-based, human. The following applies: Extended Data Fig. 8. How it is done: as §1
The subject of the next assay is SNU16 cells. The assay is described as follows: Cell viability (CellTiter-Glo). The format is cell-based, human. The following applies: Extended Data Fig. 8; read-out: IC50 SNU16. The procedure: as §1, with “(v.9.1.0). […]” for “(v.9.1.0).”
Assay [3] deals with T1, Full-length human CHK1 protein (Homo sapiens, UniProt O14757).
T1 construct: purchased Carna Biosciences, Inc. 02-117
T1 sequence (O14757 1-476): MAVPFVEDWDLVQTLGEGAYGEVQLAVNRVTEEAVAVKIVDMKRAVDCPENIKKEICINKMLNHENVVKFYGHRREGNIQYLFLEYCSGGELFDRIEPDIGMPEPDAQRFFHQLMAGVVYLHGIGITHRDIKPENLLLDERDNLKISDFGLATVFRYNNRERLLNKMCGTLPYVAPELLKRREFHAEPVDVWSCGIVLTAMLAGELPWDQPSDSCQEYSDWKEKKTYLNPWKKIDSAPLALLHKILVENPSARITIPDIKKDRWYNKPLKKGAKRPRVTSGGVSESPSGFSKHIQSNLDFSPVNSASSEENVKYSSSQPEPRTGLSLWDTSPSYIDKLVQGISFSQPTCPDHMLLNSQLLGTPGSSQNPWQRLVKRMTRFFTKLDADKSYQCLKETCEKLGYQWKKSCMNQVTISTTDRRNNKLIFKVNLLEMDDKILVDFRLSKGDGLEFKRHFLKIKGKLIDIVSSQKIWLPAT
The assay is described as follows: Kinase HTRF biochemical assay (CHK1 enzyme inhibition). The following applies: HTRF KinEASE, ATP 1 mM; read-out: CHK1 biochemical potency (IC50).
Experimental: CHK1 enzyme activity was measured using a homogeneous time resolved fluorescence (HTRF) KinEASE assay (Cisbio, catalogue no. 62ST1PEC). Full-length human CHK1 protein (GenBank accession number NP_001265.1) was obtained from Carna Biosciences, Inc. (catalogue no. 02-117). The enzyme reaction was carried out in assay buffer containing (final concentrations): CHK1 enzyme (0.012 ng µl^−^1), MgCl2 (5 mM) and DTT (1 mM). To determine compound dose response, DMSO stock solutions were serially diluted in a ten-point concentration series in duplicate. Compound solution (50 nl) was added to 384-well assay plates (Greiner, catalogue no. 784075). To each well containing compound solution was added assay buffer solution (5 µl). Plates were centrifuged at 1,000 rpm for 1 min, then incubated at room temperature for 10 min. The reaction was started by addition of substrate buffer (5 µl per well) containing (final concentrations): STK substrate 1-biotin (120 nM) and ATP (1 mM). Assay plates were centrifuged at 1,000 rpm for 1 min, then incubated at room temperature for 60 min. The reaction was stopped by the addition of detection buffer (Cisbio, 10 µl) containing (final concentrations): STK antibody cryptate (0.25 nM) and streptavidin-XL665 (7.5 nM). […] HTRF signal was read on an EnVision multimode plate reader (Cisbio) in HTRF mode. […]

For the next assay, the system named is pCHK1-S345 in HT29 cells. The assay is described as follows: AlphaLISA SureFire Ultra p-CHK1 (Ser345) assay in HT29 cells. The format is cell-based. To be noted: 16 h, read-out: CHK1 cellular potency AlphaLisa (IC50). How it is done: Compound activity in cells was measured using an AlphaLISA SureFire Ultra p-CHK1 (Ser345) assay (Perkin Elmer, catalogue no. ALSU-PCHK1-A10K). HT29 cells were cultured in McCoy 5 A medium with 10% FBS and 1% penicillin-streptomycin and seeded to 96-well plates (Corning, catalogue no. 3599). Compounds were serially diluted in DMSO over a 10-point dose range with 3-fold dilution, and compound solution was added to each well containing cells. Plates were centrifuged at 1,000 rpm for 30 s. Plates were incubated at 37 °C for 16 h. Supernatant was removed by flicking the plate against a paper towel. Wells were washed once with PBS solution. To each well was added freshly prepared lysis buffer and plates were agitated on a plate shaker at 400 rpm for 30 min. The 96-well cell plates were centrifuged at 1,500 rpm for 1 min. From each well was transferred 10 µl of the lysates to a 384-well Optiplate (Perkin Elmer, catalogue no. 6007290). To each well was added Acceptor Mix (5 µl) and the plates were sealed and wrapped in foil. Plates were agitated on a plate shaker for 2 min, then incubated at room temperature for 1 h. To each well was added Donor Mix (5 µl) and the plates were sealed and wrapped in foil. Plates were agitated on a plate shaker for 2 min, then incubated at room temperature for 1 h. AlphaLisa signal was read on an EnVision multimode plate reader (Perkin Elmer). […]
In general terms: Alpha assays give light when donor and acceptor beads are brought close together.

For the next assay, the system named is CHK1/CHK2. Description: CHK1/CHK2 selectivity. Format: biochemical.
Where [4] appears, read: Extended Data Fig. 8, read-out: IC50 COLO320DM.

Each structure is given as a SMILES string. Where two headings read alike, the source gives them in different places.

On to `O=c1[nH]c2ccc(Cl)cc2c(N[C@@H]2CN3CCC2CC3)c1-c1nc2ccccc2[nH]1` [CHIR-124], for which, in assay [1], the “cell apoptosis (TUNEL, PI-Annexin V)” value is “more rapid and higher degree of cell apoptosis”. Also, the IC50 worked out at 146 nM with COLO320DM cells (setting [4]); 1120 nM in the assay with COLO320HSR cells; 1660 nM in the assay on GBM39HSR cells; 581 nM with GBM39ec cells; 150 nM with SNU16 cells. The “IC50 fold higher in COLO320HSR compared to COLO320DM” value in the assay on COLO320HSR cells (Fig. 3d) is “approximately 4 fold”. In addition, the “DNA damage (γH2AX IF)” value in assay [2] is given as “significantly higher DNA damage in COLO320DM compared with COLO320HSR”.

With `N[C@@H]1CCCN(c2c(Br)cnc3[nH]cc(NC(=O)C4CC4)c23)C1` [GDC-0575], the IC50 in [3] worked out at 12 nM; in the assay with pCHK1-S345 in HT29 cells, 122 nM; with COLO320DM cells (COLO320DM cells, read-out: CTG proliferation ecDNA+ (IC50)), 105 nM; in the assay on COLO320DM cells (setting [4]) it was 167 nM; in the assay on COLO320HSR cells, 588 nM. This compound also yielded a CHK1/CHK2 selectivity in the assay on CHK1/CHK2 of 1.5×.
